These results are taken from EP0338042B1, “COMPOSITION AND METHOD FOR TREATING HEPATITIS VIRUS INFECTIONS USING 1-(2'-DEOXY-2'-FLUORO-BETA-D-ARABINOFURANOSYL)-5-ETHYLURACIL” (priority 1987, dated 1989).

Molecules are shown by their SMILES. pEC50: −log10 of the molar value. Several values for one entry are separate records, joined by “and”; a condition that tells them apart may be missing. Equal values may be shown once.

The subject of series [1] is woodchuck hepatitis virus (WHV). Nature of the series: Inhibition of WHV replication in chronically infected woodchucks (DNA polymerase activity). The format is in vivo, woodchucks (Marmota monax). The following applies: for WHV replication by day 60: all 5 animals. The procedure:
All woodchucks bearing chronic active hepatitis virus (Hantz, supra) were administered FMAU twice daily by interperitoneal injections of FMAU in the following dosages:
Studies were then undertaken to evaluate FMAU and FEAU in this animal model using woodchucks naturally chronically-infected with woodchuck hepatitis virus (24). It was assumed that these nucleosides would be anabolized to their nucleoside triphosphates within the animal. WHV replication was measured periodically by the endogenous DNA polymerase activity and by the detection of WHV DNA by the dot-blot hybridization assay. Three different dosages of FMAU and FEAU were investigated. FMAU at 2 mg/kg/day x 5, (given intraperitoneally TABLE VIII
In accordance with the procedures of Example 2, the FEAU inhibition of WHV replication was further studied at different doses administered orally to woodchucks through stomach tubes. Two groups of woodchucks with different initial WHV replication values were examined.
Seven woodchucks with high WHV replication were tested. High replication was defined as over 1000 counts per minute of DNA polymerase activity, and the mean replication was 1600.
Seven woodchucks with low WHV replication were tested. Low replication was defined as lower than 1000 counts per minute of DNA polymerase activity, and the mean replication was 600-800.

Another series deals with T1, HL-60 CELLS MIT[…] (Homo sapiens, UniProt O00142).
T1 construct: cytosol and mitochondrial TK's derived from the HL-60 human cell line; endogenous in cells; host or cells: HL-60
T1 sequence (O00142 34-265): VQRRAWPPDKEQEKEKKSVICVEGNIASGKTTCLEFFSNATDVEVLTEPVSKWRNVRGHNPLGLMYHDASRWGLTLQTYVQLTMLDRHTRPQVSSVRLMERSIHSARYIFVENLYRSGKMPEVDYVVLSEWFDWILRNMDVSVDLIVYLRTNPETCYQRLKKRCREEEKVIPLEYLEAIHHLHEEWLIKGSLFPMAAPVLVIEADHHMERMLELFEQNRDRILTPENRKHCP
Nature of the series: Phosphorylation by thymidine kinase relative to thymidine. Particulars: thymidine at 400 µM. The format is biochemical. The text has this:
(§1) It is generally accepted that the selective anti-herpes activity of 2′-fluoro-arabinosylpyrimidine nucleosides is associated in large measure with their ability to be recognized as good substrates for HSV-specified thymidine kinase (TK), but not by the host TK (14, 15). […] By contrast, FEAU is a very poor substrate for the host HL-60 derived TKs (13). […] Their data also indicate that, in uninfected Vero cells, FEAU would be phosphorylated at a very low rate in the presence of thymidine.

Another series has as its target HSV-1 (STRAIN KOS) TK (Human herpesvirus 1, UniProt P17402). The series is described as above. It counts as biochemical. The following applies: thymidine at 400 µM.
Description: as §1

The next series has as its target HSV-2 (STRAIN 333) TK (Human herpesvirus 2, UniProt P04407). Described as above. The format is biochemical. Particulars: thymidine at 400 µM.
Description: as §1

The next series concerns HSV-1(F). Particulars: plaque reduction in Vero cells, cited from earlier work.
Where [2] appears, read: 0.2 mg/kg/day, FMAU x 5, FEAU x 10.

HSV-1 (STRAIN KOS) TK, sequence (P17402 whole entry, looked up): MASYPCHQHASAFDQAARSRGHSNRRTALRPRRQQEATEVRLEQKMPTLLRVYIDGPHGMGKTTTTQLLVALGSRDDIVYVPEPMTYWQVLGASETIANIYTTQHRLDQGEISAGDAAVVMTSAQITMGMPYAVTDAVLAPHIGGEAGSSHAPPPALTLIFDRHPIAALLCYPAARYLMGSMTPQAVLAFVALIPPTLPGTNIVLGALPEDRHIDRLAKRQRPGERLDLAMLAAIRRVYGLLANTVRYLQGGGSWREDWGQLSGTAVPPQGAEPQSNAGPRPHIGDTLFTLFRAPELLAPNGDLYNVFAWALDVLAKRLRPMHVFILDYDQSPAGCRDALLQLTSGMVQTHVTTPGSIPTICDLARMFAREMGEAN
HSV-2 (STRAIN 333) TK, sequence (P04407 whole entry): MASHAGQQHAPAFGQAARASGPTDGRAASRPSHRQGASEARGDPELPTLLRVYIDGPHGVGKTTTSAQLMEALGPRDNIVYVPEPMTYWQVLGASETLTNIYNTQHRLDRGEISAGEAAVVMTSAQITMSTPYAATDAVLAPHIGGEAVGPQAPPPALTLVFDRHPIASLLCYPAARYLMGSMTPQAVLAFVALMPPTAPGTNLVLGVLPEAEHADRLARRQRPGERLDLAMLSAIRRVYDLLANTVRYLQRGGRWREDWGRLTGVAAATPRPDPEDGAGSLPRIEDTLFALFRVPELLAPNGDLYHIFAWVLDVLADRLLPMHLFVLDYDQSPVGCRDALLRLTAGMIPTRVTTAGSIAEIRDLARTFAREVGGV

Regarding `CCc1cn([C@@H]2O[C@H](CO)[C@@H](O)[C@@H]2F)c(=O)[nH]c1=O` [FEAU, 1-(2'-deoxy-2'-fluoro-beta-D-arabino-furanosyl)-5-ethyl-uracil], in series [1] (0.04 mg/kg/day x 10), the anti-WHV effect entry was “somewhat diminished anti-WHV effect”. In addition, the “suppression of viral replication” value in series [1] (setting [2]) is reported as “equally effective”. Also, the toxicity result was “nontoxic” in series [1] (setting [2]); “did not exhibit any toxic effects” in series [1] (in vivo, ip, 2 mg/kg/day); “without any observed toxicity” in series [1] (in vivo, po, 0.2 mg/kg/day). Further, in series [1] (0.2 or 2 mg doses, slow return to pretreatment levels), the “inhibitory activity after cessation of drug administration” value is reported as “remained significant over a six-week period”. The “WHV replication by the twenty-third day” value in series [1] (high replication woodchucks (>1000 cpm), oral 0.2 mg/kg/day, four of five still above normal level (50 cpm)) was “lowered replication values”; in series [1] (low replication woodchucks (<1000 cpm), oral 0.04 mg/kg/day, two of five still above normal level), “lowered replication values”. Further, the “WHV replication by day 60” value was “completely inhibited” in series [1] (high replication woodchucks, oral 0.2 mg/kg/day, raised to 1 mg/kg/day on day 24 in four of five) and “completely inhibited” in series [1] (low replication woodchucks, oral 0.04 mg/kg/day, raised to 0.2 mg/kg/day on day 24 in two of five). Besides, the WHV replication result was “almost immediate suppression” in series [1] (i.p. 2 mg/kg/day x 10) and “significant suppression” in series [1] (oral administration, 0.2 mg/kg/day x 10, one woodchuck, preliminary). Besides, in series [1] (in vivo), the weight loss result is recorded as “about 10%”. In addition, the “PERCENTAGE RATES OF PHOSPHORYLATION (RELATIVE TO THYMIDINE), HL-60 CELLS MITOCHONDRIAL TK” value on HL-60 CELLS MIT[…] was determined as 219.0%. Also, the “PERCENTAGE RATES OF PHOSPHORYLATION (RELATIVE TO THYMIDINE), HSV-1 (STRAIN KOS) TK” value at HSV-1 (STRAIN KOS) TK was 82.7% and 42.0%. For the same molecule, the “PERCENTAGE RATES OF PHOSPHORYLATION (RELATIVE TO THYMIDINE), HSV-2 (STRAIN 333) TK” value at HSV-2 (STRAIN 333) TK was 203.2% and 146.6%. Further, the pEC50 in the series with HSV-1(F) (read-out: HSV-1(F) ED₅₀) was 7.62. In addition, in the series on HSV-1(F) (read-out: HSV-1(F) ED₉₀), the EC90 was 260 nM.
